PMC9533862 (Antiviral Research, 2010)
Values joined by “and” are separate entries in the source; they are usually repeats but may differ in a detail not shown here. Identical values can stand only once. Like-named read-outs stand apart in the source and are kept apart here.

Experiments:
[1] = test system: vaccinia virus (strain Copenhagen); assay: microbe, parasite or virus in culture; format: cell-based
HeLa cells = settings: HeLa cell monolayers; 24 h incubation; WST-1
in vitro = settings: human, CC50, HeLa cell monolayers; 24 h incubation; WST-1
[2] = test system: vaccinia virus (strain Copenhagen); format: cell-based
[3] = test system: vaccinia virus DNA replication; format: cell-based
vaccinia virus = settings: previously reported against vaccinia; ref Yang et al., 2005; cited from earlier work
[4] = test system: vaccinia virus (strain Copenhagen); format: cell-based; settings: 0.2 μM
[5] = test system: vaccinia virus gene transcription (D12, A1, A17); format: cell-based; settings: 2 μM
[6] = test system: vaccinia virus protein expression (D12, G8, H3); format: cell-based; settings: 2 μM
[7] = test system: vaccinia virus (strain Copenhagen); format: cell-based; settings: 0.2 μM; remark: listed apart in the source
myxoma virus = format: cell-based; settings: HeLa cells, 2 μM, MOI 0.1
[8] = test system: Plasmodium vinckei petteri; settings: mice; ref Adovelande and Schrevel, 1996; cited from earlier work
[9] = test system: vaccinia virus Western Reserve (WR) strain; assay: microbe, parasite or virus in culture; format: cell-based

Structure (SMILES): C/C=C/[C@H]1O[C@@](O)([C@@H](C)[C@H](O)[C@H](C)[C@H]2OC(=O)/C(OC)=C/C(C)=C/[C@@H](C)[C@@H](O)[C@@H](CC)[C@@H](O)[C@H](C)C/C(C)=C/C=C/[C@@H]2OC)C[C@@H](O[C@H]2C[C@@H](O)[C@H](O)[C@@H](C)O2)[C@@H]1C [Concanamycin C]
- IC50 [1]: ~0.0028 µM and 0.0028 µM
- CC50 (HeLa cells): 15.6 ± 3.2 µM

Structure (SMILES): Nc1ccn(C[C@@H](CO)OCP(=O)(O)O)c(=O)n1 [Cidofovir]
- CC50 (in vitro): > 1000 µM
- IC50 ([1]; Orthopoxvirus vaccinia, HeLa): ~110 µM
- reduction in virus titres [2]: no effect on vaccinia replication

Structure (SMILES): Nc1ccn([C@@H]2O[C@H](CO)[C@@H](O)[C@@H]2O)c(=O)n1 [araC, cytosine arabinoside]
- abundance of the A1 gene at 8 hpi (viral DNA replication) ([3]; 50 μg/mL): no significant increase in the abundance of the A1 gene

Structure (SMILES): C/C=C/[C@H]1O[C@@](O)([C@@H](C)[C@H](O)[C@H](C)[C@H]2OC(=O)/C(OC)=C/C(C)=C/[C@@H](C)[C@@H](O)[C@@H](CC)[C@@H](O)[C@H](C)C/C(C)=C/C=C/[C@@H]2OC)C[C@@H](O[C@H]2C[C@@H](O)[C@H](OC(N)=O)[C@@H](C)O2)[C@@H]1C [Concanamycin A]
- CC50 (in vitro): 13.5 ± 5.7 µM
- Selectivity index [1]: 7941
- IC50 ([1]; Orthopoxvirus vaccinia, HeLa): ~0.0017 µM

Structure (SMILES): C/C=C/[C@H]1O[C@@](O)([C@@H](C)[C@H](O)[C@H](C)[C@H]2OC(=O)/C(OC)=C/C(C)=C/[C@@H](C)[C@@H](O)[C@@H](C)[C@@H](O)[C@H](C)C/C(C)=C/C=C/[C@@H]2OC)C[C@@H](O[C@H]2C[C@@H](O)[C@H](OC(N)=O)[C@@H](C)O2)[C@@H]1C [Concanamycin B]
- IC50 [1]: ~0.011 µM and 0.011 µM
- CC50 (HeLa cells): 21.4 ± 0.6 µM

Structure (SMILES): O=C(NN1C(=O)[C@@H]2[C@@H]3C=C[C@@H]([C@H]4C[C@@H]34)[C@@H]2C1=O)c1ccc(C(F)(F)F)cc1 [ST-246]
- CC50 (in vitro): > 1000 µM
- IC50 (vaccinia virus): 0.01 µM
- IC50 ([1]; Orthopoxvirus vaccinia, HeLa): ~0.0094 µM
- reduction in virus titres [2]: approximately 7.4 fold

Structure (SMILES): CO[C@@H]1C[C@@H](C[C@H]2CC[C@H](C)[C@H]([C@@H](C)C(=O)O)O2)O[C@]2(O[C@](C)([C@H]3CC[C@@](C)([C@@H]4O[C@@H]([C@H]5O[C@@](O)(CO)[C@H](C)C[C@@H]5C)C[C@@H]4C)O3)C[C@H]2C)[C@@H]1C [Nigericin]
- decrease in viral titres [4]: ~10 fold
- reduction of A1 (intermediate) transcript expression [5]: ~94%
- reduction of A17 (late) transcript expression [5]: ~98%
- reduction of D12 (early) transcript expression [5]: ~82%
- D12 (early) protein expression [6]: partially inhibited
- G8 (intermediate) protein expression [6]: very little G8 detected
- H3 (late) protein expression [6]: unable to detect H3 protein
- decrease in viral titres [7]: ~10 fold
- abundance of the A1 gene at 8 hpi (viral DNA replication) ([3]; 2 μM): no significant increase in the abundance of the A1 gene
- reduction in virus titres (myxoma virus): 676 fold
- dosages at which toxicity was observed [8]: above 10 mg kg^−1
- Selectivity index [1]: 1038 (Cop)
- IC50 ([1]; Orthopoxvirus vaccinia, HeLa): ~0.0079 µM
- reduction of virus replication, compound added 4 hpi [2]: ~1600 fold
- vaccinia replication after removal of compound at 1 hpi [2]: vaccinia replication approached the level of untreated controls
- decrease in viral titres ([2]; 0.2 μM): ~10 fold
- Selectivity index [9]: 421 (WR)
- IC50 ([9]; Vaccinia virus Western Reserve, HeLa): ~0.0195 µM

Structure (SMILES): CC[C@@]1([C@@H]2O[C@@H]([C@H]3O[C@@](O)(CO)[C@H](C)C[C@@H]3C)C[C@@H]2C)CC[C@H]([C@]2(C)CC[C@]3(C[C@H](O)[C@@H](C)[C@@H]([C@@H](C)[C@@H](OC)[C@H](C)C(=O)O)O3)O2)O1 [Monensin]
- CC50 (in vitro): 23 ± 2.9 µM
- Selectivity index [1]: 1065
- IC50 ([1]; Orthopoxvirus vaccinia, HeLa): ~0.0216 µM
- reduction in virus titres [2]: approximately 20 fold
